pIC50: −log10 of the molar value.
Tests used:
[1] = test system: TCAF cell line; test: Cytotoxicity, TCAF; assay type: cell-based
Method: (§1) In addition to the screening already discussed, several of the before-described compounds and chimeras were screened against several or all of a panel of ten to twenty-five cancerous cell lines as target cells and seven "normal" cell preparations. This screening utilized a sulforhodamine B cytotoxidity assay as discussed below.
(§2) IC50 values; i.e., the concentration of Compound required to kill one-half of the treated cells, were then calculated.

[2] = test system: tumor cells and "normal" cells; test: Relative activity against tumor cells and normal cells; assay type: cell-based
Text: In contrast, 100 percent of normal human mammary epithelial cells (HMEC) were viable at the same concentration.

[3] = test system: DNA in Molt-4 leukemia cells; test: DNA strand breakage in Molt-4 cells (ethidium bromide fluorimetry); assay type: cell-based
Method: In another study, Molt-4 leukemia cells were treated with ethidium bromide, which led to uptake by DNA through intercalcation and consequent fluorescence. Exposure of those cells to Compound 153 (10 μM at 10^7 cells/ml) led to rapid DNA strand breakage as determined by fluorimetry, resulting in 95 percent destruction after four hours at 37° C. […] These observations implicate DNA strand cleavage as the direct cause of cell destruction in these studies.

[4] = test system: P-388 mouse lymphoma cells; test: Sulforhodamine B cytotoxicity, P-388; assay type: cell-based; conditions: Mus musculus, P388; P-388; read-out: IC50
Method: as §1, §2

[5] = test system: MOLT-4 (Leukemia) cell line; test: cells; assay type: cell-based
How it was run: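 Values given are IC50s, defined as the compound concentration at which half the treated cells were killed in a sulforhodamine B assay. The panel screened comprised ten to twenty-five tumour lines and seven normal cell preparations.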

[6] = Sulforhodamine B cytotoxicity, HMEC; assay type: cell-based, human; conditions: human, read-out: cell viability
Method: as §1, §2
HMEC Human mammary epithelial cells

[7] = test system: UCLA P-3 non-small cell lung carcinoma cells; test: Sulforhodamine B cytotoxicity, UCLA-P3; assay type: cell-based, human; conditions: Homo sapiens, UCLA P-3, non small cell lung P-3; read-out: IC50
Method: as §1, §2
UCLA P-3 Dr. D. Morton, University of California, […]

[8] = test system: Capan-1 pancreatic carcinoma cells; test: Sulforhodamine B cytotoxicity, Capan-1; assay type: cell-based; conditions: Homo sapiens, CAPAN-1, Capan-1; read-out: IC50
Method: as §1, §2

[9] = test system: M-21 melanoma cells; test: Inhibition of [3H]leucine uptake (protein synthesis) in M-21 cells; assay type: cell-based, human; conditions: 72 hours incubation
Method: (§3) These determinations were made by standard tissue growth procedures using RPMI tissue culture medium supplemented with 10 percent fetal bovine serum plated at 10^4 cells in 100 μl of medium in 96-well tissue culture plates. The cells were permitted to adhere for 24 hours, and the dilutions of Compound 153 were added in 10 μl volumes and incubated for 72 hours at 37° C. in a humidified atmosphere containing five percent CO2. The plates were then washed three times with tissue culture medium and again incubated for 24 hours, as above. Each well received 1 μCi of ^3 H-labeled substrate, and after an additional 16 hours of incubation, cells were collected on glass fiber filters with a Skatron cell harvester. Finally, the filters were placed in Ecolume scintillation cocktail (ICN, Irvine, Calif.), and radioactivity was measured with a Beckeman scintillation counter. Incorporation of the ^3 H label was calculated as a percentage of untreated controls.

[10] = test system: Mel-7 breast carcinoma cells; test: Sulforhodamine B cytotoxicity, Mel-7 (breast carcinoma); assay type: cell-based; conditions: Breast carcinoma cell
Method: as §1, §2

[11] = test system: HL-60 promyeocytic leukemia cells; test: Sulforhodamine B cytotoxicity, HL-60; assay type: cell-based; conditions: Homo sapiens, HL-60, HL-60; read-out: IC50
Method: as §1, §2

[12] = test system: M-14 melanoma cells; test: Sulforhodamine B cytotoxicity, M-14; assay type: cell-based; conditions: Homo sapiens, M14
Method: as §1, §2
UCLA M-14 Dr. R. Reisfeld of The Scripps Research

[13] = test system: HT-29 colon carcinoma cells; test: Sulforhodamine B cytotoxicity, HT-29; assay type: cell-based; conditions: Homo sapiens, HT-29, colon carcinoma H-29 (Table 4) / HT-29 (Table 5); read-out: IC50
Method: as §1, §2

[14] = Water solubility; assay type: physicochemical
[15] = test system: L-1210 mouse lymphoma cells; test: Sulforhodamine B cytotoxicity, L-1210; assay type: cell-based; conditions: L1210
Method: as §1, §2

[16] = test system: multiple-drug resistant TCAF-DAX cell line; test: Cytotoxicity, TCAF-DAX; assay type: cell-based
Method: as §1, §2

[17] = test system: M-21 melanoma cells; test: Sulforhodamine B cytotoxicity, M-21; assay type: cell-based; conditions: Homo sapiens, M21
Method: as §1, §2
UCLA M-21 Institute, and originally obtained from […]

[18] = test system: U-87 UG astocytoma cells; test: Sulforhodamine B cytotoxicity, U-87; assay type: cell-based
Method: as §1, §2

[19] = test system: Ovcar-3 ovarian carcinoma cells; test: Sulforhodamine B cytotoxicity, Ovcar-3; assay type: cell-based; conditions: Homo sapiens, OVCAR-3, Ovcar-3; read-out: IC50
Method: as §1, §2

[20] = test system: H-358 lung cells; test: Sulforhodamine B cytotoxicity, H-358; assay type: cell-based; conditions: Homo sapiens, NCI-H358
Method: as §1, §2

[21] = Chemical stability; assay type: physicochemical
[22] = test system: M-21 melanoma cells; test: Inhibition of [3H]thymidine uptake (DNA synthesis) in M-21 cells; assay type: cell-based, human; conditions: 72 hours incubation
Method: as §3

[23] = test system: H-322 lung carcinoma cells; test: Sulforhodamine B cytotoxicity, H-322; assay type: cell-based; conditions: NCI-H322; H-322; read-out: IC50
Method: as §1, §2

[24] = test system: U-251 MG glioma cells; test: Sulforhodamine B cytotoxicity, U-251; assay type: cell-based; conditions: Homo sapiens
Method: as §1, §2

[25] = test system: φX174 Form I DNA; test: φX174 supercoiled DNA cleavage, agarose gel; assay type: biochemical

With `O=C(OCCS(=O)(=O)c1ccccc1)N1c2ccc(OCCO)cc2C23OC24CCCC3C#C/C=C\C#CC14` (centres unmarked) [Compound 153] the pIC50 [1] was 8.96, the “selectivity between normal and cancer cells (qualitative)” value [2] was “relative selectivity for tumor cell lines as opposed to normal, untransformed cells” and the “times more active against tumor cells than against normal cells” value ([2]; except for the three melanoma cell lines) was 10^1 -10^8 times. For the same molecule, the “DNA strand breakage (destruction)” value ([3]; 10 μM at 10^7 cells/ml, four hours at 37° C.) was 95%, the “delay of cell death relative to DNA strand breakage” value ([3]; 10 μM, Molt-4 cells) was “two” and the pIC50 [4] was 8.34. For the same molecule, the viability at 0.01 µM ([5]; Homo sapiens, 72 h, 10^-8 M, Molt-4 tumor cells) was 20%, the “relative potency (qualitative)” value ([5]; Molt-4) was “highest potency amongst all of the agents assayed against the Molt-4 leukemia cell line” and the viability at 72 h ([6]; 10^-6 to 10^-7 M) was 100%. For the same molecule, the viability at 72 h, 0.01 µM ([6]; 10^-8 M) was 100%, the pIC50 [7] was 7.01 and the pIC50 [8] was 8.41. The “inhibition of [3H]leucine uptake (protein synthesis)” value [9] was “severely impair”, the pIC50 [10] was 6.11 and the pIC50 [11] was 10.44. The pIC50 [12] was 5.80, the pIC50 [13] was 5.80 and the water solubility [14] was “increased solubility of Compound 153 in water compared to the other enediyne compounds”. It also gave a pIC50 [15] of 8.89, a pIC50 [16] of 8.77 and a pIC50 [17] of 5.80. The pIC50 [18] was 6.11, the pIC50 [19] was 6.11 and the pIC50 [20] was 6.70. For the same molecule, the chemical stability [21] was “decompose cleanly to form phenyl vinyl sulfone and the corresponding free amine enediyne Compound 153a”, the time remaining intact ([21]; pH 7.0 phosphate buffer (100 mM), 37° C.) was no less than 1.5 h and the “inhibition of [3H]thymidine uptake (DNA synthesis)” value [22] was “severely impair the ability of M-21 melanoma cells to synthesize DNA”. The pIC50 [23] was 6.41, the pIC50 [24] was 6.41 and the DNA cleavage ([25]; 1.0 mM, 24 hours, acidic pH) was “no DNA cleavage activity”. The DNA cleavage ([25]; 1.0 mM, 24 hours, pH 7.0 and higher) was “some DNA cleavage activity” and the DNA cleavage ([25]; pH 8.5, 24 or 48 hours, 37° C.) was “strong DNA cleavage activity”.

— patent US5281710A, “Dynemicin analogs: synthesis, methods of preparation and use” (The Scripps Research Institute, priority 1992, dated 1994)
